The values below come from patent US10687529B2, “Nematotoxic composition of synergistic effect, use of a nematotoxic composition of synergistic effect” (EMPRESA BRASILEIRA DE PESQUISA AGROPECUARIA-EMBRAPA, priority 2012, dated 2020).

The first assay deals with second-stage juveniles (J2) of M. incognita. The experiment in a line: in vitro bioassay against second-stage juveniles (J2), 48 hours' exposure. Type of assay: in vivo. As to conditions: 80 μg/300 μL. As for the experimental part:
FIG. 1—effect of the aqueous crude extracts of seeds of antagonistic plants on (J2) of M. incognita. The bars represent the percentage of live nematodes after 48 hours' exposure. Concentration of 1 mg of each extract for a final volume of 0.3 mL and 100 second-stage juveniles was used in the bioassay in triplicate, having distilled water as negative control. […]
(§1) FIG. 9—(A) Bioassay showing the effect of the commercial compounds on second-stage juveniles of M. incognita after 48 hours' exposure. 1—Control dH20, 2—DECE, 3—Glycose 10%, 4—Glycose 20%, 5—D-Pinitol (80 ug), 6—D-Pinitol (150 ug), 7—L-canavanina (80 ug), 8—L-canavanina (150 ug), 9—palmitic acid (80 ug), 10—palmitic acid (150 ug), 11—citric acid (80 ug), 12—citric acid (150 ug), 13—malic acid (80 ug), 14—malic acid (150 ug), 15—cis-aconitic acid (80 ug), 16—cis-anonitic acid (150 ug), 17—trans-anonitic acid (80 ug), 18—trans-aconitic acid (150 ug), 19—50 mM Tris/HCl pH 8, 20—50 mM acetic acid pH 5, 21—L-phenylamine (80 ug), 22—L-phenylamine (150 ug), 23—L-methionine (80 ug), 24—L-methionine (150 ug), 25—L-tryptophan (80 ug), 26—L-tryptophan (150 ug), 27—S-carboxymethylcistein (80 ug), 28—S-carboxymethylcisteine (150 ug), 29—Zantotoxine (80 ug), 30—Zantotoxine (150 ug), and 31—Glucose 20%+L-canavanine (15)ug). B—Evaluation of the effect of the different commercial compounds after the recovery assay using distilled water.
FIG. 10—(A) Bioassay showing the effect of the commercial compounds and their compositions on second-stage juveniles of M. incognita […] after 48 hours' exposure. C+ positive control (extract); C—: negative control (water); 2: palmitic acid; 3: S-carboxymethylcisteine; 4: trans-aconitic acid; 5: glucose. […] (B)—Evaluation of the effect of the different commercial compounds and their compositions after the recovery assay using distilled water. C+ positive control (extract); 2: palmitic acid; 3: s-carboxymethylcisteine; 4: trans-aconitic acid; 5: glucose.
With `CO[C@H]1[C@H](O)[C@@H](O)[C@@H](O)[C@H](O)[C@@H]1O` [D-pinitol], the J2 paralyzed entry is given as “did not exhibit any toxic effect”.
As to `N=C(N)NOCC[C@H](N)C(=O)O` [L-canavanine], the J2 paralyzed result is given as “did not exhibit any nematotoxic activity”.
The same measure, in the same setting: to `N[C@@H](Cc1ccccc1)C(=O)O` [L-phenylamnine] belongs “not capable of affecting the J2”.
`N[C@@H](Cc1c[nH]c2ccccc12)C(=O)O` [L-triptofane]: the J2 paralyzed result is “not capable of affecting the J2”.
Still for that read-out and setting: under `COc1c2occc2cc2ccc(=O)oc12` [Xantotoxin] stands 87%; under `O=C(O)/C=C(/CC(=O)O)C(=O)O` [cis-aconitic acid], “very low percentage”; under `O=C(O)CC(O)(CC(=O)O)C(=O)O` [citric acid], “very low percentage”.
As for `O=C(O)CC(O)C(=O)O` (stereo not drawn) [malic acid], the J2 paralyzed result is on record as “very low percentage”.
Compound `CCCCCCCCCCCCCCCC(=O)O` [palmitic acid] displayed a J2 paralyzed of 98%.
Compound `O=C(O)/C=C(\CC(=O)O)C(=O)O` [trans-aconitic acid] showed a J2 paralyzed of 90%.
For the compound S-carboxymethylcisteine, the J2 paralyzed entry was “about 90%”.

Still in this assay, the particulars now being: 150 μg/300 μL.
`CO[C@H]1[C@H](O)[C@@H](O)[C@@H](O)[C@H](O)[C@@H]1O` [D-pinitol]: the J2 paralyzed result is recorded as “did not exhibit any toxic effect”.
On the same count and under the same terms, under `N[C@@H](Cc1ccccc1)C(=O)O` [L-phenylamnine] stands “not capable of affecting the J2”; under `N[C@@H](Cc1c[nH]c2ccccc12)C(=O)O` [L-triptofane], “not capable of affecting the J2”.
`COc1c2occc2cc2ccc(=O)oc12` [Xantotoxin]: the J2 paralyzed was 87%.
In the case of S-carboxymethylcisteine, the J2 paralyzed result was “about 90%”.

Still in this assay, the particulars now being: 0.17 g/L (of each compound in the composition).
Take `O=C(O)/C=C(\CC(=O)O)C(=O)O` [trans-aconitic acid]: the “% paralyzed namatodes” value is given as 11.12%.
The same measure, in the same setting: to S-carboxymethylcisteine belongs 43.03%.

Still in this assay, the particulars now being: 0.25 g/L (of each compound in the composition).
`O=C(O)/C=C(\CC(=O)O)C(=O)O` [trans-aconitic acid]: the “% of paralyzed nematodes” value is 27.08%.

The next assay relates to J2 of M. incognita. The experiment in a line: recovery assay using distilled water, certifying nematicidal or nematostatic effect. Type of assay: in vivo. As to conditions: 80 μg/300 μL. As for the experimental part:
as §1
FIG. 10—(A) Bioassay showing the effect of the commercial compounds and their compositions on second-stage juveniles of M. incognita […] after 48 hours' exposure. C+ positive control (extract); C—: negative control (water); 2: palmitic acid; 3: S-carboxymethylcisteine; 4: trans-aconitic acid; 5: glucose. Concentrations of the compositions: 3+4, 3+5=0.25 g/L (each active compound of the composition); 3+4+5=0.17 g/L each active compound of the composition. (B)—Evaluation of the effect of the different commercial compounds and their compositions after the recovery assay using distilled water. C+ positive control (extract); 2: palmitic acid; 3: s-carboxymethylcisteine; 4: trans-aconitic acid; 5: glucose. Concentrations of the compositions: 3+4, 3+5, 4+5=0.25 g/L (each active compound of the composition); 3+4+5=0.17 g/L each active compound of the composition.
Consider `COc1c2occc2cc2ccc(=O)oc12` [Xantotoxin], for which the “J2 recovering the mobility after the recovery test” value (“J2 recovering the mobility” below) was “did not recover the mobility”.
Still for that read-out and setting: to `CCCCCCCCCCCCCCCC(=O)O` [palmitic acid] belongs 90%; to S-carboxymethylcisteine, “most J2 recovering the movement”.

Still in this assay, the particulars now being: 105 μg/300 μL.
Take `N=C(N)NOCC[C@H](N)C(=O)O` [L-canavanine]: the “juveniles remaining paralyzed after the recovery assay (nematicidal activity)” value is 25%.

Staying with this assay, now noted: 150 μg/300 μL.
`COc1c2occc2cc2ccc(=O)oc12` [Xantotoxin]: the “J2 recovering the mobility” value is listed as “did not recover the mobility”.
As for `O=C(O)/C=C(/CC(=O)O)C(=O)O` [cis-aconitic acid], the “nematicidal activity after the recovery assay” value is 40%.
Turning to `O=C(O)CC(O)(CC(=O)O)C(=O)O` [citric acid], the “nematicidal activity after the recovery assay” value is given as 25%.
As for `O=C(O)CC(O)C(=O)O` (stereo not drawn) [malic acid], the “nematicidal activity after the recovery assay” value came out at 18%.
For `CCCCCCCCCCCCCCCC(=O)O` [palmitic acid], the “J2 recovering the mobility” value is given as 90%.
As for `O=C(O)/C=C(\CC(=O)O)C(=O)O` [trans-aconitic acid], the “nematicidal activity after the recovery assay” value turned out to be 98%.
Take S-carboxymethylcisteine: the “J2 recovering the mobility” value is “most J2 recovering the movement”.
